Values of other authors as cited in patent US20130108599A1, “Herbal Vaginal Compositions” (priority 2011, published 2013).

Legend:
[1] = system: Candida albicans (KCTC 7270)

## O=C(O[C@@H]1Cc2c(O)cc(O)cc2O[C@@H]1c1cc(O)c(O)c(O)c1)c1cc(O)c(O)c(O)c1 [epigallocatechin gallate]
Vaginal pathogens
  anti-microbial activity among the catechins: strongest anti-microbial activity

## Cn1c(=O)c2c(ncn2C)n(C)c1=O [caffeine]
[1]
  growth of C. albicans: strongly inhibited
